Data taken from patent US8663703B2, “Drug microparticles, processes of preparing them and a drug delivery vehicle comprising them” (Teva Pharmaceutical Industries, Ltd., priority 2002, dated 2014).

Test: Solubility of selected drugs in menthol melt
Type: physicochemical
Protocol: The following general procedure was repeated with several drugs with menthol carrier.
Menthol (10 grams) was melted on a stirring hot plate with magnetic stirring, then heated to the desired temperature indicated in Table 1. The desired drug was added in small increments (0.1 grams) and stirred to obtain a clear solution. The desired drug was added in increments until no more drug dissolved in the menthol.

Compound: O=C(O)c1ccccc1O [Salicylic acid]
- Solubility in menthol (menthol melt, 43 °C): 16.0 % w/w

Compound: CC[C@H]1OC(=O)[C@H](C)[C@@H](O[C@H]2C[C@@](C)(OC)[C@@H](O)[C@H](C)O2)[C@H](C)[C@@H](O[C@@H]2O[C@H](C)C[C@H](N(C)C)[C@H]2O)[C@](C)(O)C[C@@H](C)CN(C)[C@H](C)[C@@H](O)[C@]1(C)O [Azithromycin]
- Solubility in menthol (menthol melt, 63 °C): 40.0 % w/w

Compound: CCC(C)n1ncn(-c2ccc(N3CCN(c4ccc(OCC5COC(Cn6cncn6)(c6ccc(Cl)cc6Cl)O5)cc4)CC3)cc2)c1=O (stereo not shown) [Itraconazole]
- Solubility in menthol (in menthol at 60° C. (text of Example 6)): 1%
- Solubility in menthol (menthol melt, 61 °C): 1.0 % w/w
